Assay in all cases: inhibition of tumour cell growth, NCI panel, 48 h
For assay [1], the system named is SF-268 CNS.
Assay [2] has as its system SN12C renal.
For assay [3], the system named is SK-MEL-5 melanoma.
The subject of assay [4] is U251 CNS.
Assay [5] relates to 786-0 renal.
In assay [6] the test system is HL-60(TB) leukemia.
Assay [7] deals with HS 578T breast.
Assay [8] relates to KM12 colon.
For assay [9], the system named is COLO 205 colon.
Assay [10] concerns LOX IMVI melanoma.

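Results reflect a 48-hour exposure of cells in 96-well plates to compound at five concentrations. Here, GI50 denotes the concentration required for 50% inhibition of growth. The concentration for full growth arrest is given as TGI.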 Some results are limits rather than exact numbers.

Turning to `Cc1ccc(Cl)cc1Nc1nc(C(F)(F)F)ccc1C(=O)N/N=C/c1cccnc1`, the GI50 is 1550 nM in assay [1]; 4750 nM in [2]; 2500 nM in [3]; 2140 nM in assay [4]; 2110 nM in [5]; 1500 nM in assay [6]. The GI50 was 4050 nM in assay [7], 3190 nM in assay [8], 4860 nM in assay [9] and 1520 nM in assay [10]. The TGI in [1] is 9320 nM; in assay [2] it was 21900 nM; in assay [3], 10300 nM; in [4], 11700 nM; in assay [5] it was 11400 nM; in [6], over 46000 nM. The TGI in assay [7] was found to be 18500 nM; in [8], 11800 nM; in assay [9] it was 17700 nM; in [10], 13600 nM.
In the case of `CO/C=C/C(=O)c1cc2cnc3c(=N)cc(NC(=O)C(C)C)c([nH]1)c23`, the GI50 in [1] is 61.6 nM; in [2], 24.6 nM; in assay [3], 75 nM; in assay [4], 88.9 nM; in assay [5], 98.1 nM; in assay [6], 32 nM. The GI50 was 19.5 nM in assay [7], 196 nM in [8], 135 nM in assay [9] and 69.4 nM in assay [10]. Further, the TGI in assay [1] stood at 918 nM; in assay [2], 1610 nM; in [3], 183 nM; in [4], 610 nM; in [5] it was 695 nM; in [6] it was 295 nM. Also, the TGI turned out to be 188 nM in assay [7], 1860 nM in assay [8], 869 nM in assay [9] and 429 nM in [10].

These data come from PubChem BioAssay (NCI).
